Where two headings read alike, the source gives them in different places.
Assays:
GLP-1R = GLP-1R (Homo sapiens, UniProt P43220); experiment: GLP-1R activation: cAMP increase in CHO cells stably expressing GLP-1R; assay type: cell-based
[1] = Microsomal stability, human liver microsomes (predicted hepatic clearance); conditions: predicted from in vitro microsomal stability data
[2] = cAMP increase, CHO cells stably expressing GLP-1R, 10 point dose response, 30 minutes incubation, read-out: EC50

Sequence of GLP-1R (P43220 24-463): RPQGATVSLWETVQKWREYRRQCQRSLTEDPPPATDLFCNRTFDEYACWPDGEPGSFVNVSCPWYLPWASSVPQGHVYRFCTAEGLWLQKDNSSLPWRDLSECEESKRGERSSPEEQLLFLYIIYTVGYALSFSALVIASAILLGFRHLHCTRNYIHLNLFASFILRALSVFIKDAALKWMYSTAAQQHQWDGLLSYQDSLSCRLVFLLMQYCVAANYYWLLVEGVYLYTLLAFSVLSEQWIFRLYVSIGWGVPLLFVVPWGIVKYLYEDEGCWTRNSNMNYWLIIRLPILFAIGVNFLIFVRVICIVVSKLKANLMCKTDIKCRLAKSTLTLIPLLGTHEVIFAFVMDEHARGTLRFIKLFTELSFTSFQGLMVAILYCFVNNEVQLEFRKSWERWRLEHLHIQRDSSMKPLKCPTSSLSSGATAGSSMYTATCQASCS

## CNC(=O)C(Cn1c(Cc2ccc(-c3cccc(OCc4ccc(C#N)cc4F)n3)cc2F)nc2ccc(C(=O)O)cc21)OC (single isomer, unassigned) [Example 330, 2-(4-(6-((4-cyano-2-fluorobenzyl)oxy)pyridin-2-yl)-2-fluorobenzyl)-1-(2-methoxy-3-(methylamino)-3-oxopropyl)-1H-benzo[d]imidazole-6-carboxylic acid]
GLP-1R; [2]
  EC50: 17.2 nM
[1]
  Predicted Hepatic Clearance (Pred. Cl.): 0.19 L/h/kg

## COCCn1c(Cc2ccc(-c3nc(OCc4ccc(C#N)cc4F)ccc3C)cc2)nc2ccc(C(=O)O)cc21 (single isomer, unassigned) [Example 23, 2-(4-(6-((4-cyano-2-fluorobenzyl)oxy)-3-methylpyridin-2-yl)benzyl)-1-(2-methoxyethyl)-1H-benzo[d]imidazole-6-carboxylic acid]
GLP-1R; [2]
  EC50: 1100 nM
[1]
  Predicted Hepatic Clearance (Pred. Cl.): 0.83 L/h/kg

## COCCn1c(Cc2ccc(-c3nc(OCc4ccc(C#N)cc4F)c(F)cc3F)cc2F)nc2ccc(C(=O)O)cc21 [Example 73, 2-(4-(6-((4-cyano-2-fluorobenzyl)oxy)-3,5-difluoropyridin-2-yl)-2-fluorobenzyl)-1-(2-methoxyethyl)-1H-benzo[d]imidazole-6-carboxylic acid]
GLP-1R; [2]
  EC50: 6.13 nM
[1]
  Predicted Hepatic Clearance (Pred. Cl.): 0.27 L/h/kg

## N#Cc1ccc(COc2nccc(-c3ccc(Cc4nc5ccc(C(=O)O)cc5n4C[C@@H]4CCO4)c(F)c3)n2)c(F)c1 [Example 351, (S)-2-(4-(2-((4-cyano-2-fluorobenzyl)oxy)pyrimidin-4-yl)-2-fluorobenzyl)-1-(oxetan-2-ylmethyl)-1H-benzo[d]imidazole-6-carboxylic acid]
GLP-1R; [2]
  EC50: 0.96 nM
[1]
  Predicted Hepatic Clearance (Pred. Cl.): 0.12 L/h/kg

## COCCn1c(Cc2cc(F)c(-c3cccc(OCc4ccc(C)cc4F)n3)cc2F)nc2ccc(C(=O)O)cc21 [Example 810]
GLP-1R; [2]
  EC50: 0.33 nM
[1]
  Predicted Hepatic Clearance (Pred. Cl.): 0.41 L/h/kg

## N#Cc1ccc(COc2cccc(-c3ccc(Cc4nc5c(F)cc(C(=O)O)cc5n4Cc4ccon4)c(F)c3)n2)c(F)c1 [Example 585, 2-(4-(6-((4-cyano-2-fluorobenzyl)oxy)pyridin-2-yl)-2-fluorobenzyl)-4-fluoro-1-(isoxazol-3-ylmethyl)-1H-benzo[d]imidazole-6-carboxylic acid]
GLP-1R; [2]
  EC50: 0.81 nM
[1]
  Predicted Hepatic Clearance (Pred. Cl.): 0.14 L/h/kg

## CC1(C)CC(Cn2c(Cc3ccc(-c4cccc(OCc5ccc(C#N)cc5F)n4)cc3F)nc3ccc(C(=O)O)cc32)O1 (single isomer, unassigned) [Example 904, 2-(4-(6-((4-cyano-2-fluorobenzyl)oxy)pyridin-2-yl)-2-fluorobenzyl)-1-((4,4-dimethyloxetan-2-yl)methyl)-1H-benzo[d]imidazole-6-carboxylic acid]
GLP-1R; [2]
  EC50: 311 nM
[1]
  Predicted Hepatic Clearance (Pred. Cl.): 0.67 L/h/kg

## N#Cc1ccc(COc2nccc(-c3ccc(Cc4nc5ccc(C(=O)O)cc5n4C[C@@H]4CCO4)cc3F)n2)c(F)c1 [Example 403, (S)-2-(4-(2-((4-cyano-2-fluorobenzyl)oxy)pyrimidin-4-yl)-3-fluorobenzyl)-1-(oxetan-2-ylmethyl)-1H-benzo[d]imidazole-6-carboxylic acid]
GLP-1R; [2]
  EC50: 0.89 nM
[1]
  Predicted Hepatic Clearance (Pred. Cl.): 0.297 L/h/kg

## C[C@@]1(Cn2c(Cc3cc(F)c(-c4cccc(OCc5ccc(C#N)cc5F)n4)cc3F)nc3ccc(C(=O)O)cc32)CCCO1 (racemic) [Example 548, 2-(4-(6-((4-cyano-2-fluorobenzyl)oxy)pyridin-2-yl)-2,5-difluorobenzyl)-1-((2-methyltetrahydrofuran-2-yl)methyl)-1H-benzo[d]imidazole-carboxylic acid]
GLP-1R; [2]
  EC50: 9.01 nM
[1]
  Predicted Hepatic Clearance (Pred. Cl.): 0.45 L/h/kg

## N#Cc1ccc(COc2cccc(-c3cc(F)c(Cc4nc5ccc(C(=O)O)nc5n4CC4(CF)CC4)c(F)c3)n2)c(F)c1 [Example 319, 2-(4-(6-((4-cyano-2-fluorobenzyl)oxy)pyridin-2-yl)-2,6-difluorobenzyl)-3-((1-(fluoromethyl)cyclopropyl)methyl)-3H-imidazo[4,5-b]pyridine-5-carboxylic acid]
GLP-1R; [2]
  EC50: 2.43 nM
[1]
  Predicted Hepatic Clearance (Pred. Cl.): <0.11 L/h/kg

## COCCn1c(Cc2ccc(-c3ccc(C#N)c(OCc4ccc(C#N)cc4F)n3)cc2F)nc2ccc(C(=O)O)cc21 [Example 86, 2-(4-(5-cyano-6-((4-cyano-2-fluorobenzyl)oxy)pyridin-2-yl)-2-fluorobenzyl)-1-(2-methoxyethyl)-1H-benzo[d]imidazole-6-carboxylic acid]
GLP-1R; [2]
  EC50: 274 nM
[1]
  Predicted Hepatic Clearance (Pred. Cl.): <0.11 L/h/kg

## Cc1csc(NCCn2c(Cc3cc(F)c(-c4ccnc(OCc5ccc(C#N)cc5F)n4)cc3F)nc3ccc(C(=O)O)cc32)n1 [Example 832]
GLP-1R; read-out: EC50
  EC50: 2330 nM
[1]
  Predicted Hepatic Clearance (Pred. Cl.): 0.86 L/h/kg

## COCCn1c(Cc2cnc(-c3cccc(OCc4ccc(C#N)cc4F)n3)nc2)nc2ccc(C(=O)O)cc21 [Example 44, 2-((2-(6-((4-cyano-2-fluorobenzyl)oxy)pyridin-2-yl)pyrimidin-5-yl)methyl)-1-(2-methoxyethyl)-1H-benzo[d]imidazole-6-carboxylic acid]
GLP-1R; [2]
  EC50: 212 nM
[1]
  Predicted Hepatic Clearance (Pred. Cl.): 0.18 L/h/kg

## N#Cc1ccc(COc2ncc(F)c(-c3cc(F)c(Cc4nc5c(F)cc(C(=O)O)cc5n4CC4(CF)CC4)cc3F)n2)c(F)c1 [Example 883]
GLP-1R; [2]
  EC50: 0.3 nM
[1]
  Predicted Hepatic Clearance (Pred. Cl.): 0.45 L/h/kg

## N#CCC1(Cn2c(Cc3ccc(-c4cccc(OCc5ccc(C#N)cc5F)n4)cc3C#N)nc3ccc(C(=O)O)cc32)CC1 [Example 388, 2-(2-cyano-4-(6-((4-cyano-2-fluorobenzyl)oxy)pyridin-2-yl)benzyl)-1-((1-(cyanomethyl)cyclopropyl)methyl)-1H-benzo[d]imidazole-6-carboxylic acid]
GLP-1R; [2]
  EC50: 0.24 nM
[1]
  Predicted Hepatic Clearance (Pred. Cl.): 0.31 L/h/kg

## COCCn1c(Cc2ccc(-c3cccc(OCc4ccc(Cl)cc4OC)n3)cc2F)nc2ccc(C(=O)O)cc21 [Example 247, 2-(4-(6-((4-chloro-2-methoxybenzyl)oxy)pyridin-2-yl)-2-fluorobenzyl)-1-(2-methoxyethyl)-1H-benzo[d]imidazole-6-carboxylic acid]
GLP-1R; [2]
  EC50: 2.2 nM
[1]
  Predicted Hepatic Clearance (Pred. Cl.): 0.41 L/h/kg

## N#Cc1ccc(COc2cccc(-c3ccc(Cc4nc5c(F)cc(C(=O)O)cc5n4C[C@@H]4CCO4)c(F)c3)n2)c(F)c1 [Example 455, (S)-2-(4-(6-((4-cyano-2-fluorobenzyl)oxy)pyridin-2-yl)-2-fluorobenzyl)-4-fluoro-1-(oxetan-2-ylmethyl)-1H-benzo[d]imidazole-6-carboxylic acid]
GLP-1R; [2]
  EC50: 1.87 nM
[1]
  Predicted Hepatic Clearance (Pred. Cl.): <0.11 L/h/kg

## COCCn1c(Cc2ccc(-c3cccc(OCc4ccc(C#N)cc4F)n3)cc2COC)nc2ccc(C(=O)O)cc21 [Example 411, 2-(4-(6-((4-cyano-2-fluorobenzyl)oxy)pyridin-2-yl)-2-(methoxymethyl)benzyl)-1-(2-methoxyethyl)-1H-benzo[d]imidazole-6-carboxylic acid]
GLP-1R; EC50 (nM)
  EC50: 140 nM
[1]
  Predicted Hepatic Clearance (Pred. Cl.): 0.56 L/h/kg

## COCCn1c(Cc2ccc(-c3cc(OC)cc(OCc4ccc(C#N)cc4F)c3)cc2F)nc2ccc(C(=O)O)cc21 [Example 30, 2-((3′-((4-cyano-2-fluorobenzyl)oxy)-3-fluoro-5′-methoxy-[1,1′-biphenyl]-4-yl)methyl)-1-(2-methoxyethyl)-1H-benzo[d]imidazole-6-carboxylic acid]
GLP-1R; [2]
  EC50: 1350 nM
[1]
  Predicted Hepatic Clearance (Pred. Cl.): 0.28 L/h/kg

## COCCn1c(Cc2ccc(-c3cccc(OCc4ccc(C#N)cc4F)n3)cc2F)nc2ccc(C(O)CO)cc21 (racemic) [Example 582]
GLP-1R; [2]
  EC50: 3460 nM
[1]
  Predicted Hepatic Clearance (Pred. Cl.): 0.91 L/h/kg

## N#CCC1(Cn2c(Cc3cc(F)c(-c4ccnc(OCc5ccc(C#N)cc5F)n4)cc3F)nc3ccc(C(=O)O)nc32)CC1 [Example 400, 2-(4-(2-((4-cyano-2-fluorobenzyl)oxy)pyrimidin-4-yl)-2,5-difluorobenzyl)-3-((1-(cyanomethyl)cyclopropyl)methyl)-3H-imidazo[4,5-b]pyridine-5-carboxylic acid]
GLP-1R; [2]
  EC50: 0.47 nM
[1]
  Predicted Hepatic Clearance (Pred. Cl.): <0.11 L/h/kg

## N#Cc1ccc(COc2cccc(-c3ccc(Cc4nc5ccc(C(=O)O)cc5n4C4(CF)CC4)cc3F)n2)c(F)c1 [Example 209, 2-(4-(6-((4-cyano-2-fluorobenzyl)oxy)pyridin-2-yl)-3-fluorobenzyl)-1-(1-(fluoromethyl)cyclopropyl)-1H-benzo[d]imidazole-6-carboxylic acid]
GLP-1R; [2]
  EC50: 48.8 nM
[1]
  Predicted Hepatic Clearance (Pred. Cl.): 0.51 L/h/kg

## N#Cc1ccc(COc2cccc(-c3ccc(Cc4nc5ccc(C(=O)O)cc5n4CC4(n5ccnn5)CC4)cc3)n2)c(F)c1 [Example 461, 1-((1-(1H-1,2,3-triazol-1-yl)cyclopropyl)methyl)-2-(4-(6-((4-cyano-2-fluorobenzyl)oxy)pyridin-2-yl)benzyl)-1H-benzo[d]imidazole-6-carboxylic acid]
GLP-1R; [2]
  EC50: 2.47 nM
[1]
  Predicted Hepatic Clearance (Pred. Cl.): 0.43 L/h/kg

## N#Cc1ccc(COc2cccc(-c3cc(F)c(Cc4nc5ccc(C(=O)O)cc5n4C4CC5(COC5)C4)cc3F)n2)c(F)c1 [Example 728]
GLP-1R; [2]
  EC50: 93.6 nM
[1]
  Predicted Hepatic Clearance (Pred. Cl.): 0.50 L/h/kg

## CO[C@H]1COC[C@@H]1n1c(Cc2cc(F)c(-c3cccc(OCc4ccc(C#N)cc4F)n3)cc2F)nc2ccc(C(=O)O)cc21 [Example 712]
GLP-1R; [2]
  EC50: 2.55 nM
[1]
  Predicted Hepatic Clearance (Pred. Cl.): 0.41 L/h/kg

## C[C@H](O)Cn1c(Cc2cc(F)c(-c3cccc(OCc4ccc(C#N)cc4F)n3)cc2F)nc2ccc(C(=O)O)cc21 [Example 723]
GLP-1R; EC50 (nM)
  EC50: 5.19 nM
[1]
  Predicted Hepatic Clearance (Pred. Cl.): 0.21 L/h/kg

## COCCn1c(Cc2ccc(-c3cccc(OCc4ccc(C#N)cc4F)n3)cc2C)nc2ccc(C(=O)O)cc21 [Example 59, 2-(4-(6-((4-cyano-2-fluorobenzyl)oxy)pyridin-2-yl)-2-methylbenzyl)-1-(2-methoxyethyl)-1H-benzo[d]imidazole-6-carboxylic acid]
GLP-1R; [2]
  EC50: 5.6 nM
[1]
  Predicted Hepatic Clearance (Pred. Cl.): <0.11 L/h/kg

From patent publication US11702404B2, “GLP-1R modulating compounds” (priority 2019, dated 2023)
